Results published in patent US7871790B2 (priority 2004, dated 2011).
Residues, ends and D or L forms follow the SMILES beside them. *: point of attachment. Cbz = O=C(OCc1ccccc1)*; CH2F = FC*

How the values were obtained:
ICE (caspase-1) = molecular target: T1, ICE (caspase-1) (Mus musculus, UniProt P29452)
T1 sequence (P29452 119-296 limits assumed): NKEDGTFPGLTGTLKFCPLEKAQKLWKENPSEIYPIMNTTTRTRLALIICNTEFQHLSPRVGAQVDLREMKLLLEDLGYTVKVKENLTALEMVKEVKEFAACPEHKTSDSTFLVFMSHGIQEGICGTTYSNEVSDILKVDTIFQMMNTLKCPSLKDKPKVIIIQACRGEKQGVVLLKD
T1 sequence (P29452 315-402 limits assumed): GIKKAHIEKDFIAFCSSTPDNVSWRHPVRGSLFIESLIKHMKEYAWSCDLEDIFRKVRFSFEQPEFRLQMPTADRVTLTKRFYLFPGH

[1] = system: RAW 264.7 murine macrophage cell line; type: cell-based; conditions: 24 h

Row | Molecule | Effect on cell viability (ICE (caspase-1)) | Blocking of IL-1β production induced by anthrax LT (ICE (caspase-1); 24 hours) | Blocking of IL-18 production induced by anthrax LT (ICE (caspase-1); 24 hours) | Dose needed for induction of IL-1β comparable to that resulting from anthrax LT treatment [1] | Induction of IL-18 [1]
1 | COC(=O)CC[C@H](NC(=O)[C@H](Cc1c[nH]c2ccccc12)NC(=O)OCc1ccccc1)C(=O)N[C@@H](Cc1cnc[nH]1)C(=O)N[C@@H](CC(=O)OC)C(=O)CF [Z-WEHD-FMK] (Cbz-WE(OMe)HD(OMe)-CH2F) | no observable effect | ~70% | ~70% |  | 
2 | lipopolysaccharide [LPS] |  |  |  | ≥ 100 EU/ml | not induced
